# Values quoted from earlier work in patent US20260034185A1, “POLYPODYIUM LEUCOTOMOS AND LARIX DECIDUA FOR USE IN THE PREVENTION OF DAMAGE FROM UVA, UVB, UVC AND/OR IR RAYS” (Unifarco S.p.A., priority 2022, published 2026).
# Biological target: T1, caspase-1 (Homo sapiens, UniProt P29466)
# T1 construct: literature Promega G9951
# T1 sequence (P29466 120-297 limits assumed): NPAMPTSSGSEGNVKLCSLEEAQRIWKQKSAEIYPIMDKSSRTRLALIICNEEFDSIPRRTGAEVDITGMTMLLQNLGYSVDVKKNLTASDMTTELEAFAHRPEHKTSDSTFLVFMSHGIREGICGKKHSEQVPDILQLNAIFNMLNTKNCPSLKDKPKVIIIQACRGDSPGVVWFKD
# T1 sequence (P29466 317-404 limits assumed): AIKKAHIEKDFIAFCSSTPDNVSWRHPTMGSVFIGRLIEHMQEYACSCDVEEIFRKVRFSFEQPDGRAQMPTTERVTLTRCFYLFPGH
# Settings: inhibitor included in the Caspase-Glo 1 kit; does not substantially inhibit cross-reactive caspases
substance,measurement,value
Ac-YVAD-CHO,inhibition of caspase-1 activity,99%
